Minimal effective dose data for 24 molecules are collected here from patent publication US4368200A, “Heterocyclic derivatives of (4-phenyl-piperazine-1-yl-aryloxymethyl-1,3-dioxolan-2-yl)-methyl-1H-imi dazoles and 1H-1,2,4-triazoles” (Janssen Pharmaceutica N.V., priority 1981, dated 1983).

In this test the test system is Candida albicans. Description: Experiment A: activity against vaginal candidosis in rats. It is filed as in vivo, Female Wistar rats. Conditions: po, 336 h, orally once a day for two days starting from the day of infection, active at the 14th day after infection, read-out: Vaginal candidosis in rats: lowest effective dose in mg/kg orally. The protocol: Female Wistar rats of ±100 g body weight are used. They are ovariectomized and hysterectomized and after three weeks of recovery, 100 μg of oestradiol undecylate in sesame oil is given subcutaneously once a week for 3 consecutive weeks. The thus induced pseudo-oestrus is controlled by microscopic examination of vaginal smears. Food and water are left available ad libitum. The rats are infected intravaginally with 8.10^5 cells of Candida albicans, grown on Sabouraud broth for 48 hours at 37° C. and diluted with saline. The data of infection varies from day +25 to day +32 after surgical intervention, depending on the appearance of signs of induced pseudo-oestrus. The drugs under investigation are administered orally once a day for two days starting from the day of infection. For each experiment there are placebo treated controls. The results are assessed by taking vaginal smears with sterile swabs on several days after the infection. The swabs are put into Sabouraud broth in petri-dishes and incubated for 48 hours at 37° C. If no growth of Candida albicans occurs, i.e., when the animals are negative at the end of the experiment, this is due to drug administration because it never happens in placebo-treated controls. The table below gives the lowest oral dose of the drug under investigation which is found active at the 14th day after infection.

Structures are written as SMILES. Some results are limits rather than exact numbers.

Take `Clc1ccc([C@@]2(Cn3ccnc3)OC[C@H](COc3ccc(N4CCN(c5ccc(-n6cccn6)cc5)CC4)cc3)O2)c(Cl)c1` (relative stereo): the minimal effective dose is 2.5 mg/kg.

With `Clc1ccc([C@@]2(Cn3cncn3)OC[C@H](COc3ccc(N4CCN(c5ccc(-n6cccn6)cc5)CC4)cc3)O2)c(Cl)c1` (relative stereo), the minimal effective dose turned out to be 2.5 mg/kg.

On to `Clc1ccc([C@@]2(Cn3ccnc3)OC[C@H](COc3ccc(N4CCN(c5ccc(-n6ccnc6)cc5)CC4)cc3)O2)c(Cl)c1` (relative stereo), for which the minimal effective dose came out at 1.25 mg/kg.

As for `Clc1ccc([C@@]2(Cn3cncn3)OC[C@H](COc3ccc(N4CCN(c5ccc(-n6ccnc6)cc5)CC4)cc3)O2)c(Cl)c1` (relative stereo), the minimal effective dose came out at 1.25 mg/kg.

`Clc1ccc([C@@]2(Cn3ccnc3)OC[C@H](COc3ccc(N4CCN(c5ccc(-n6cncn6)cc5)CC4)cc3)O2)c(Cl)c1` (relative stereo): the minimal effective dose was found to be 0.63 mg/kg.

`Clc1ccc([C@@]2(Cn3cncn3)OC[C@H](COc3ccc(N4CCN(c5ccc(-n6cncn6)cc5)CC4)cc3)O2)c(Cl)c1` (relative stereo): the minimal effective dose was determined as 0.63 mg/kg.

Consider `CSc1ncn(-c2ccc(N3CCN(c4ccc(OC[C@H]5CO[C@](Cn6ccnc6)(c6ccc(Cl)cc6Cl)O5)cc4)CC3)cc2)n1` (relative stereo), for which the minimal effective dose is 2.5 mg/kg.

Take `CSc1ncn(-c2ccc(N3CCN(c4ccc(OC[C@H]5CO[C@](Cn6cncn6)(c6ccc(Cl)cc6Cl)O5)cc4)CC3)cc2)n1` (relative stereo): the minimal effective dose is 1.25 mg/kg.

`CSc1nc(C)n(-c2ccc(N3CCN(c4ccc(OC[C@H]5CO[C@](Cn6ccnc6)(c6ccc(Cl)cc6Cl)O5)cc4)CC3)cc2)n1` (relative stereo): the minimal effective dose came to 2.5 mg/kg.

With `CSc1nc(C)n(-c2ccc(N3CCN(c4ccc(OC[C@H]5CO[C@](Cn6cncn6)(c6ccc(Cl)cc6Cl)O5)cc4)CC3)cc2)n1` (relative stereo), the minimal effective dose is ≤ 0.63 mg/kg.

Take `CSc1nnc(C)n1-c1ccc(N2CCN(c3ccc(OC[C@H]4CO[C@](Cn5cncn5)(c5ccc(Cl)cc5Cl)O4)cc3)CC2)cc1` (relative stereo): the minimal effective dose turned out to be 2.5 mg/kg.

For the molecule `CSc1nncn1-c1ccc(N2CCN(c3ccc(OC[C@H]4CO[C@](Cn5cncn5)(c5ccc(Cl)cc5Cl)O4)cc3)CC2)cc1` (relative stereo), the minimal effective dose is 2.5 mg/kg.

Consider `Cc1ncnn1-c1ccc(N2CCN(c3ccc(OC[C@H]4CO[C@](Cn5cncn5)(c5ccc(Cl)cc5Cl)O4)cc3)CC2)cc1` (relative stereo), for which the minimal effective dose turned out to be 0.63 mg/kg.

For `Cc1nn(C)c(=O)n1-c1ccc(N2CCN(c3ccc(OC[C@H]4CO[C@](Cn5ccnc5)(c5ccc(Cl)cc5Cl)O4)cc3)CC2)cc1` (relative stereo), the minimal effective dose was 0.63 mg/kg.

`Cc1nn(C)c(=O)n1-c1ccc(N2CCN(c3ccc(OC[C@H]4CO[C@](Cn5cncn5)(c5ccc(Cl)cc5Cl)O4)cc3)CC2)cc1` (relative stereo): the minimal effective dose is ≤ 0.63 mg/kg.

For the molecule `Clc1ccc([C@@]2(Cn3cncn3)OC[C@H](COc3ccc(N4CCN(c5ccc(-n6cnnn6)cc5)CC4)cc3)O2)c(Cl)c1` (relative stereo), the minimal effective dose is < 2.5 mg/kg.

Consider `Cn1ncn(-c2ccc(N3CCN(c4ccc(OC[C@H]5CO[C@](Cn6cncn6)(c6ccc(Cl)cc6Cl)O5)cc4)CC3)cc2)c1=O` (relative stereo), for which the minimal effective dose is ≥ 0.63 mg/kg.

For `Cn1ncn(-c2ccc(N3CCN(c4ccc(OC[C@H]5CO[C@](Cn6ccnc6)(c6ccc(Cl)cc6Cl)O5)cc4)CC3)cc2)c1=O` (relative stereo), the minimal effective dose stood at 1 mg/kg.

On to `CCn1ncn(-c2ccc(N3CCN(c4ccc(OC[C@H]5CO[C@](Cn6ccnc6)(c6ccc(Cl)cc6Cl)O5)cc4)CC3)cc2)c1=O` (relative stereo), for which the minimal effective dose turned out to be 1.25 mg/kg.

As for `CCCn1nc(C)n(-c2ccc(N3CCN(c4ccc(OC[C@H]5CO[C@](Cn6ccnc6)(c6ccc(Cl)cc6Cl)O5)cc4)CC3)cc2)c1=O` (relative stereo), the minimal effective dose came to 0.63 mg/kg.

In the case of `CCn1nc(C)n(-c2ccc(N3CCN(c4ccc(OC[C@H]5CO[C@](Cn6cncn6)(c6ccc(Cl)cc6Cl)O5)cc4)CC3)cc2)c1=O` (relative stereo), the minimal effective dose was < 0.63 mg/kg.

As for `CCCn1nc(C)n(-c2ccc(N3CCN(c4ccc(OC[C@H]5CO[C@](Cn6cncn6)(c6ccc(Cl)cc6Cl)O5)cc4)CC3)cc2)c1=O` (relative stereo), the minimal effective dose amounted to 0.5 mg/kg.

As to `CCn1ncn(-c2ccc(N3CCN(c4ccc(OC[C@H]5CO[C@](Cn6cncn6)(c6ccc(Cl)cc6Cl)O5)cc4)CC3)cc2)c1=O` (relative stereo), the minimal effective dose was ≥ 0.16 mg/kg.

As to `CCn1nc(C)n(-c2ccc(N3CCN(c4ccc(OC[C@H]5CO[C@](Cn6ccnc6)(c6ccc(Cl)cc6Cl)O5)cc4)CC3)cc2)c1=O` (relative stereo), the minimal effective dose came out at 1.25 mg/kg.
